Measured values from US8859569B2, “Substituted annellated pyrimidines and use thereof” (Bayer Pharma Aktiengesellschaft, priority 2011, dated 2014).

Target: T1, recombinant guanylate cyclase reporter cell line (Rattus norvegicus, UniProt P19686+P20595)
T1 construct: expressed in transfected cells
T1 sequence (P20595 1-619): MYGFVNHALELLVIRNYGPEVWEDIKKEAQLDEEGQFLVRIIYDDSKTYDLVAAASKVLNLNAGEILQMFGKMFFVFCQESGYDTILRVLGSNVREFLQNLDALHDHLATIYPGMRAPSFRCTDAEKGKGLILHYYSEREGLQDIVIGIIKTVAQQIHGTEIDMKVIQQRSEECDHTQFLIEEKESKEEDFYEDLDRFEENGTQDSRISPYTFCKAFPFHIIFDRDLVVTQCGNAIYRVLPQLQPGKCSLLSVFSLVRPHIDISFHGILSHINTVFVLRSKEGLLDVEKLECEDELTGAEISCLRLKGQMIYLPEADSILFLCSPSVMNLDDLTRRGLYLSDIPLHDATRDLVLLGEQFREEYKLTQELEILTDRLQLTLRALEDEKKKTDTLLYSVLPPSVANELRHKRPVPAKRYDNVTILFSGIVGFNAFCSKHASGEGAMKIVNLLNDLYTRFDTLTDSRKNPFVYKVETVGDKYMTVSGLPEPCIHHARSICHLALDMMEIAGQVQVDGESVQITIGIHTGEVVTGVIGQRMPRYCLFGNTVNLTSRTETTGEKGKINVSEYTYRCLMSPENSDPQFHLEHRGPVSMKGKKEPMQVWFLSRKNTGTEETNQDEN
T1 sequence (P19686 1-690): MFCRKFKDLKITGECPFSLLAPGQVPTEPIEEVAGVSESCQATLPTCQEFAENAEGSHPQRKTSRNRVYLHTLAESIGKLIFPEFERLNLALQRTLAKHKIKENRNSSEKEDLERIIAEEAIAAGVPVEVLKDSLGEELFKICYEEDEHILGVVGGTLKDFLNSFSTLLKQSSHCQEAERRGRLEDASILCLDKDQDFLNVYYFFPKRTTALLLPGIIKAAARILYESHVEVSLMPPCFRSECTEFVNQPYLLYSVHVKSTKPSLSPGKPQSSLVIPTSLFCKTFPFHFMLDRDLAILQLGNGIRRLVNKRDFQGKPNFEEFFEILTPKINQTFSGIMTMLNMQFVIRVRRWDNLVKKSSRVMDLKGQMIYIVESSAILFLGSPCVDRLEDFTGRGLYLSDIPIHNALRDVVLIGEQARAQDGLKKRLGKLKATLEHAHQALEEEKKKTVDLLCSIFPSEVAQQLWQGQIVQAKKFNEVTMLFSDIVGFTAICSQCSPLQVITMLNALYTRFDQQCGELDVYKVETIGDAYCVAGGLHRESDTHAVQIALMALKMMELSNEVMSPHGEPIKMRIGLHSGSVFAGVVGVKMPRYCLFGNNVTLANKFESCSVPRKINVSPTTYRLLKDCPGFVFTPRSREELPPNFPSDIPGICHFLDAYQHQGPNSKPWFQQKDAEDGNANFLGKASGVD
Test: Action on recombinant guanylate cyclase reporter cell line
Format: cell-based
Protocol: B-2. Action on Recombinant Guanylate Cyclase Reporter Cell Line
The cellular action of the compounds according to the invention is determined on a recombinant guanylate cyclase reporter cell line, as described in F. Wunder et al., Anal. Biochem. 339, 104-112 (2005).

Row | Compound | MEC (minimal effective concentration) [μm]
1 | CC1(C)C(=O)Nc2nc(-c3nn(Cc4ccccc4F)c4ncccc34)nc(NC3CCOC3)c21 (racemic) [Example 49, 2-[1-(2-fluorobenzyl)-1H-pyrazolo[3,4-b]pyridin-3-yl]-5,5-dimethyl-4-(tetrahydrofuran-3-ylamino)-5,7-dihydro-6H-pyrrolo[2,3-d]pyrimidin-6-one] | 0.3
2 | CC1(C)C(=O)Nc2nc(-c3nn(Cc4ccccc4F)c4ncccc34)nc(NCC3CCCC3)c21 [Example 80, 4-[(cyclopentylmethyl)amino]-2-[1-(2-fluorobenzyl)-1H-pyrazolo[3,4-b]pyridin-3-yl]-5,5-dimethyl-5,7-dihydro-6H-pyrrolo[2,3-d]pyrimidin-6-one] | 0.03
3 | C[C@H](Nc1nc(-c2nn(Cc3ccccc3F)c3ncccc23)nc2c1C(C)(C)C(=O)N2)C(N)=O [Example 79, N2-{2-[1-(2-fluorobenzyl)-1H-pyrazolo[3,4-b]pyridin-3-yl]-5,5-dimethyl-6-oxo-6,7-dihydro-5H-pyrrolo[2,3-d]pyrimidin-4-yl}-L-alaninamide] | 0.1
4 | CC1(CNc2nc(-c3nn(Cc4ccccc4F)c4ncccc34)nc3c2C(C)(C)C(=O)N3)COC1 [Example 67, 2-[1-(2-fluorobenzyl)-1H-pyrazolo[3,4-b]pyridin-3-yl]-5,5-dimethyl-4-{[(3-methyloxetan-3-yl)methyl]amino}-5,7-dihydro-6H-pyrrolo[2,3-d]pyrimidin-6-one] | 0.03
5 | CC1(C)C(=O)Nc2nc(-c3nn(Cc4ccccc4F)c4ncccc34)nc(NCc3ccc(F)cc3)c21 [Example 77, 4-[(4-fluorobenzyl)amino]-2-[1-(2-fluorobenzyl)-1H-pyrazolo[3,4-b]pyridin-3-yl]-5,5-dimethyl-5,7-dihydro-6H-pyrrolo[2,3-d]pyrimidin-6-one] | 0.1
6 | CC1(C)C(=O)Nc2nc(-c3nn(Cc4ccccc4F)c4ncccc34)nc(N3CCCCC3)c21 [Example 54, 2-[1-(2-fluorobenzyl)-1H-pyrazolo[3,4-b]pyridin-3-yl]-5,5-dimethyl-4-(piperidin-1-yl)-5,7-dihydro-6H-pyrrolo[2,3-d]pyrimidin-6-one] | 0.03
7 | CC1(C)C(=O)Nc2nc(-c3nn(Cc4ccccc4F)c4ncccc34)nc(N3CCNC(=O)C3)c21 [Example 82, 2-[1-(2-fluorobenzyl)-1H-pyrazolo[3,4-b]pyridin-3-yl]-5,5-dimethyl-4-(3-oxopiperazin-1-yl)-5,7-dihydro-6H-pyrrolo[2,3-d]pyrimidin-6-one] | 0.1
